The values below come from patent US11208421B2, “2-carboxypenam compound or salt thereof, pharmaceutical composition containing novel 2-carboxypenam compound or salt thereof, and applications thereof” (priority 2017, dated 2021).

Converted amounts (≈) assume the structure as drawn.

What all share (type): cell-based
The test system of assay [1] is Pseudomonas aeruginosa IMP-1-producing strain S-2838. Briefly: Antibacterial activity evaluation test (MIC), broth microdilution, IMP-1-producing strain S-2838. To be noted: for MIC Pseudomonas aeruginosa strain S-2838: IMP-1-producing strain, cation-adjusted Mueller Hinton medium, 35° C., 16 to 20 hours; for MIC: Pseudomonas aeruginosa, read-out: MIC Pseudomonas aeruginosa strain S-2838. The method, then: (§1) The minimum inhibitory concentration (MIC) was measured according to the Clinical and Laboratory Standards Institute (CLSI) standard method by using the following broth microdilution method.
(§2) As bacteria, a Pseudomonas aeruginosa strain ATCC 27853, a Pseudomonas aeruginosa AmpC derepression mutant strain S-3028, and a Pseudomonas aeruginosa IMP-1-producing strain S-2838 were used.
(§3) The Pseudomonas aeruginosa AmpC-derepression mutant strain S-3028 or the Pseudomonas aeruginosa IMP-1-producing strain S-2838 was cultured on a Mueller Hinton agar medium overnight, thereby preparing test bacterial cells. The obtained test bacterial cells were scraped off, suspended to yield 0.5 McFarland equivalence, and diluted 10-fold to obtain an inoculum. A cation-adjusted Mueller Hinton medium containing a test compound was inoculated with 0.0005 mL of the inoculum, and the cells were cultured at 35° C. for 16 to 20 hours. The minimum drug concentration at which the growth of bacteria was not visually observed was defined as MIC.
In general terms: Dilution methods test growth across graded concentrations, often in twofold steps.

For assay [2], the system named is Pseudomonas aeruginosa AmpC derepression mutant strain S-3028. Put plainly: Antibacterial activity evaluation test (MIC), broth microdilution, AmpC derepression mutant strain S-3028. The settings on record: for MIC Pseudomonas aeruginosa strain S-3028: AmpC derepression mutant, cation-adjusted Mueller Hinton medium, 35° C., 16 to 20 hours; for MIC: Pseudomonas aeruginosa, read-out: MIC Pseudomonas aeruginosa strain S-3028. The method, then: as §1, §2, §3

In assay [3] the test system is Pseudomonas aeruginosa strain ATCC 27853. Put plainly: Antibacterial activity evaluation test (MIC), broth microdilution, strain ATCC 27853. The settings on record: for MIC Pseudomonas aeruginosa strain ATCC 27853: cation-adjusted Mueller-Hinton medium supplemented with 20 M of apotransferrin, 35° C., 16 to 20 hours; for MIC: Pseudomonas aeruginosa, ATCC27853, read-out: MIC Pseudomonas aeruginosa strain ATCC 27853. The method, then: as §1, §2, §3
The MIC of the Pseudomonas aeruginosa ATCC strain 27853 was measured in the same manner as described above by using a cation-adjusted Mueller-Hinton medium supplemented with […] of apotransferrin as a final concentration.

As a reminder, the MIC is the smallest concentration in the dilution series that meets the test's criterion for growth inhibition.

Consider `CC(C)(O/N=C(\C(=O)N[C@@H]1C(=O)N2C[C@](SC3CN(C(=O)C(=O)c4ccc(O)c(O)c4Cl)C3)(C(=O)O)S[C@H]12)c1csc(N)n1)C(=O)O` [Example 2, (3R,5R,6R)-6-((Z)-2-(2-aminothiazol-4-yl)-2-(((2-carboxypropan-2-yl)oxy)imino)acetamide)-3-((1-(2-(2-chloro-3,4-dihydroxyphenyl)-2-oxoacetyl)azetidin-3-yl)thio)-7-oxo-4-thia-1-azabicyclo[3.2.0]heptane-3-carboxylic acid], for which the “MIC Pseudomonas aeruginosa strain S-2838” value in assay [1] was determined as 16 µg/mL (≈ 21.9 µM). Also, the “MIC Pseudomonas aeruginosa strain S-3028” value in assay [2] was 4 µg/mL (≈ 5.49 µM). Besides, in assay [3], the “MIC Pseudomonas aeruginosa strain ATCC 27853” value is not above 0.0625 µg/mL.
As to `CC(C)(O/N=C(\C(=O)N[C@@H]1C(=O)N2C[C@](SCCNC(=O)c3ccc(O)c(O)c3Cl)(C(=O)O)SC12)c1csc(N)n1)C(=O)O` (stereo partly drawn) [Example 18, (3R,5R,6R)-6-((Z)-2-(2-aminothiazol-4-yl)-2-(((2-carboxypropan-2-yl)oxy)imino)acetamide)-3-((2-(2-chloro-3,4-dihydroxybenzamide)ethyl)thio)-7-oxo-4-thia-1-azabicyclo[3.2.0]heptane-3-carboxylic acid], the MIC in assay [1] came to 4 µg/mL (≈ 5.8 µM); in assay [2] it was 2 µg/mL (≈ 2.9 µM); in assay [3], 0.125 µg/mL (≈ 0.181 µM).
Turning to `CC(C)(O/N=C(\C(=O)N[C@@H]1C(=O)N2C[C@](SCCNC(=O)/C(=N\NC(N)=O)c3ccc(O)c(O)c3)(C(=O)O)S[C@H]12)c1csc(N)n1)C(=O)O` [Example 14, (3R,5R,6R)-6-((Z)-2-(2-aminothiazol-4-yl)-2-(((2-carboxypropane-2-yl)oxy)imino)acetamide)-3-((2-(2-(2-carbamoylhydrazono)-2-(3,4-dihydroxyphenyl)acetamide)ethyl)thio)-7-oxo-4-thia-1-azabicyclo[3.2.0]heptane-3-carboxylic acid], the minimal inhibitory concentration (MIC) in assay [1] was 1 µg/mL (≈ 1.35 µM); in assay [2], 32 µg/mL (≈ 43.3 µM); in assay [3], 0.25 µg/mL (≈ 0.338 µM).
Regarding `CC(C)(O/N=C(\C(=O)N[C@@H]1C(=O)N2C[C@](SC[C@H]3COCCN3C(=O)c3ccc(O)c(O)c3Cl)(C(=O)O)SC12)c1csc(N)n1)C(=O)O` (stereo partly drawn) [Example 20, (3R,5R,6R)-6-((Z)-2-(2-aminothiazol-4-yl)-2-(((2-carboxypropan-2-yl)oxy)imino)acetamide)-3-((((R)-4-(2-chloro-3,4-dihydroxybenzoyl)morpholin-3-yl)methyl)thio)-7-oxo-4-thia-1-azabicyclo[3.2.0]heptane-3-carboxylic acid], the MIC in assay [1] worked out at 4 µg/mL (≈ 5.37 µM); in assay [2], 4 µg/mL (≈ 5.37 µM); in assay [3] it was 0.5 µg/mL (≈ 0.671 µM).
On to `CC(C)(O/N=C(\C(=O)N[C@@H]1C(=O)N2C[C@](SCCNC(=O)/C(=N\NC(N)=O)c3cc(O)c(O)cc3Cl)(C(=O)O)S[C@H]12)c1csc(N)n1)C(=O)O` [Example 24, (3R,5R,6R)-6-((Z)-2-(2-aminothiazol-4-yl)-2-(((2-carboxypropan-2-yl)oxy)imino)acetamide)-3-((2-((Z)-2-(2-carbamoylhydrazinylidene)-2-(2-chloro-4,5-dihydroxyphenyl)acetamide)ethyl)thio)-7-oxo-4-thia-1-azabicyclo[3.2.0]heptane-3-carboxylic acid], for which the MIC in assay [1] is 4 µg/mL (≈ 5.17 µM); in assay [2] it was 8 µg/mL (≈ 10.3 µM); in assay [3], 0.5 µg/mL (≈ 0.646 µM).
`CC(C)(O/N=C(\C(=O)N[C@@H]1C(=O)N2C[C@](SCCNC(=O)C(=O)c3ccc(O)c(O)c3)(C(=O)O)S[C@H]12)c1csc(N)n1)C(=O)O` [Example 7, (3R,5R,6R)-6-((Z)-2-(2-aminothiazol-4-yl)-2-(((2-carboxypropane-2-yl)oxy)imino)acetamide)-3-((2-(2-(3,4-dihydroxyphenyl)-2-oxoacetamide)ethyl)thio)-7-oxo-4-thia-1-azabicyclo[3.2.0]heptane-3-carboxylic acid]: the “MIC Pseudomonas aeruginosa strain S-2838” value in assay [1] is 4 µg/mL (≈ 5.86 µM). Further, in assay [2], the “MIC Pseudomonas aeruginosa strain S-3028” value stood at 16 µg/mL (≈ 23.4 µM). For the same compound, the “MIC Pseudomonas aeruginosa strain ATCC 27853” value in assay [3] is 0.125 µg/mL (≈ 0.183 µM).
On to `CC(C)(O/N=C(\C(=O)N[C@@H]1C(=O)N2C[C@](SC[C@@H]3COCCN3C(=O)c3ccc(O)c(O)c3Cl)(C(=O)O)S[C@H]12)c1csc(N)n1)C(=O)O` [Example 27, (3R,5R,6R)-6-((Z)-2-(2-aminothiazol-4-yl)-2-(((2-carboxypropan-2-yl)oxy)imino)acetamide)-3-((((S)-4-(2-chloro-3,4-dihydroxybenzoyl)morpholin-3-yl)methyl)thio)-7-oxo-4-thia-1-azabicyclo[3.2.0]heptane-3-carboxylic acid], for which the “MIC Pseudomonas aeruginosa strain S-2838” value in assay [1] came out at 0.5 µg/mL (≈ 0.671 µM). The “MIC Pseudomonas aeruginosa strain S-3028” value in assay [2] is 0.5 µg/mL (≈ 0.671 µM). For the same compound, the “MIC Pseudomonas aeruginosa strain ATCC 27853” value in assay [3] amounted to 1 µg/mL (≈ 1.34 µM).
Regarding `CC(C)(O/N=C(\C(=O)N[C@@H]1C(=O)N2C[C@](SCCNC(=O)/C(=N\NC(N)=O)c3ccc(O)c(O)c3Cl)(C(=O)O)S[C@H]12)c1csc(N)n1)C(=O)O` [Example 12], the MIC in assay [1] was 4 µg/mL (≈ 5.17 µM); in assay [2], 16 µg/mL (≈ 20.7 µM); in assay [3], not above 0.0625 µg/mL.
With `CN(CCS[C@]1(C(=O)O)CN2C(=O)[C@@H](NC(=O)/C(=N\OC(C)(C)C(=O)O)c3csc(N)n3)[C@H]2S1)NC(=O)c1ccc(O)c(O)c1Cl` [Example 22, (3R,5R,6R)-6-((Z)-2-(2-aminothiazol-4-yl)-2-(((2-carboxypropan-2-yl)oxy)imino)acetamide)-3-((2-(2-(2-chloro-3,4-dihydroxybenzoyl)-1-methylhydrazinyl)ethyl)thio)-7-oxo-4-thia-1-azabicyclo[3.2.0]heptane-3-carboxylic acid], the “MIC Pseudomonas aeruginosa strain S-2838” value in assay [1] was determined as 2 µg/mL (≈ 2.78 µM). In addition, the “MIC Pseudomonas aeruginosa strain S-3028” value in assay [2] turned out to be 8 µg/mL (≈ 11.1 µM). For the same compound, the “MIC Pseudomonas aeruginosa strain ATCC 27853” value in assay [3] is 0.125 µg/mL (≈ 0.174 µM).
Turning to `CC(C)(O/N=C(\C(=O)N[C@@H]1C(=O)N2C[C@](SCCNC(=O)/C(=N/N3CCOCC3)c3ccc(O)c(O)c3Cl)(C(=O)O)S[C@H]12)c1csc(N)n1)C(=O)O` [Example 10, (3R,5R,6R)-6-((Z)-2-(2-aminothiazole-4-yl)-2-(((2-carboxypropan-2-yl)oxy)imino)acetamide)-3-((2-((E)-2-(2-chloro-3,4-dihydroxyphenyl)-2-(morpholinoimino)acetamide)ethyl)thio)-7-oxo-4-thia-1-azabicyclo[3.2.0]heptane-3-carboxylic acid], the MIC in assay [1] was 32 µg/mL (≈ 39.9 µM); in assay [2] it was more than 128 µg/mL; in assay [3] it was 1 µg/mL (≈ 1.25 µM).
Take `COC[C@H](CS[C@]1(C(=O)O)CN2C(=O)[C@@H](NC(=O)/C(=N\OC(C)(C)C(=O)O)c3csc(N)n3)[C@H]2S1)NC(=O)C(=O)c1ccc(O)c(O)c1Cl` [Example 3, (3R,5R,6R)-6-((Z)-2-(2-aminothiazol-4-yl)-2-(((2-carboxypropan-2-yl)oxy)imino)acetamide)-3-(((R)-2-(2-(2-chloro-3,4-dihydroxyphenyl)-2-oxoacetamide)-3-methoxypropyl)thio)-7-oxo-4-thia-1-azabicyclo[3.2.0]heptane-3-carboxylic acid]: in assay [1], the “MIC Pseudomonas aeruginosa strain S-2838” value is 1 µg/mL (≈ 1.31 µM). Also, the “MIC Pseudomonas aeruginosa strain S-3028” value in assay [2] stood at 0.5 µg/mL (≈ 0.657 µM). Also, the “MIC Pseudomonas aeruginosa strain ATCC 27853” value in assay [3] was not above 0.0625 µg/mL.
